Assays:
uPA [1] = target: T1, uPA (Homo sapiens, UniProt P00749)
uPA [2] = target: T1, uPA; settings: read-out: uPA Ki; value taken from earlier paper; cited from earlier work
[3] = test system: panel of mammalian cell lines; settings: concentrations up to 100 μM
Sprague Dawley rats = settings: 25 mg/kg acetazolamide IV then 1.5 mg/kg compound IP, n = 8
[4] = target: T2, epithelial sodium channels (ENaCs) (Homo sapiens, UniProt P37088+P51168+P51170); settings: compounds at 10 μM, n = 4
T2 sequence (P37088 1-669): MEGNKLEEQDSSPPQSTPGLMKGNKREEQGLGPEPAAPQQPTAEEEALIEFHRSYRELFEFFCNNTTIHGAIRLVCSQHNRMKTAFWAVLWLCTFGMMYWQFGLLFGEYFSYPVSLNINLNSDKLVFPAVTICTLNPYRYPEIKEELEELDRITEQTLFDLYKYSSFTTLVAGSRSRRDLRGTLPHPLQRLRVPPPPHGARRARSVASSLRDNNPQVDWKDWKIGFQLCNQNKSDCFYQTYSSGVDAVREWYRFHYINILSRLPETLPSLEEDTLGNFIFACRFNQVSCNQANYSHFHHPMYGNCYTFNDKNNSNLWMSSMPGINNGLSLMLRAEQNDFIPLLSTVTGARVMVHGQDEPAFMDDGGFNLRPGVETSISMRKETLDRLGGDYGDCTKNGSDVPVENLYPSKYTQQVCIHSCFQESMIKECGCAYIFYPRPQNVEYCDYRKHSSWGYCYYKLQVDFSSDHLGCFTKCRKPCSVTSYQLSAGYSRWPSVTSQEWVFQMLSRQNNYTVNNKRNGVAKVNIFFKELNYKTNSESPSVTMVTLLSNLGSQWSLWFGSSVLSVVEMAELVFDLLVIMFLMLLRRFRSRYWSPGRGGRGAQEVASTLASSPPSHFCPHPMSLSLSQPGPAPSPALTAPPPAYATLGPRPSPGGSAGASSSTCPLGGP
T2 sequence (P51168 1-640): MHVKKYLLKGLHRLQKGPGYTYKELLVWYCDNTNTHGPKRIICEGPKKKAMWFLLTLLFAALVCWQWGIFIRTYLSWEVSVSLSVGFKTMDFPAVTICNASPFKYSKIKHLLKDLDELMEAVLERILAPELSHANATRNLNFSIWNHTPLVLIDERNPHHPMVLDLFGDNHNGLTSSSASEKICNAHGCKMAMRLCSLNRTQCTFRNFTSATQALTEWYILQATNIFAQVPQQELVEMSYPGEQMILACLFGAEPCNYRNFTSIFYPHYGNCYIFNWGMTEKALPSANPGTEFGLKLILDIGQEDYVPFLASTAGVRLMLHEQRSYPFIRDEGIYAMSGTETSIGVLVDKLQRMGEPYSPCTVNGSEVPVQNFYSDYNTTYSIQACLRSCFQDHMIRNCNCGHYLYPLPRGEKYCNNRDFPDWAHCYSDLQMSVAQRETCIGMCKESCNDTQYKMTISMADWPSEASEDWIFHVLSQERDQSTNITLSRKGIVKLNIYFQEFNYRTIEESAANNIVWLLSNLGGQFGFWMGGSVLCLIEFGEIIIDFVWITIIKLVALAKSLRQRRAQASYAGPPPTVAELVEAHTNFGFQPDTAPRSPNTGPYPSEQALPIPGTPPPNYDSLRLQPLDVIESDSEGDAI
T2 sequence (P51170 1-649): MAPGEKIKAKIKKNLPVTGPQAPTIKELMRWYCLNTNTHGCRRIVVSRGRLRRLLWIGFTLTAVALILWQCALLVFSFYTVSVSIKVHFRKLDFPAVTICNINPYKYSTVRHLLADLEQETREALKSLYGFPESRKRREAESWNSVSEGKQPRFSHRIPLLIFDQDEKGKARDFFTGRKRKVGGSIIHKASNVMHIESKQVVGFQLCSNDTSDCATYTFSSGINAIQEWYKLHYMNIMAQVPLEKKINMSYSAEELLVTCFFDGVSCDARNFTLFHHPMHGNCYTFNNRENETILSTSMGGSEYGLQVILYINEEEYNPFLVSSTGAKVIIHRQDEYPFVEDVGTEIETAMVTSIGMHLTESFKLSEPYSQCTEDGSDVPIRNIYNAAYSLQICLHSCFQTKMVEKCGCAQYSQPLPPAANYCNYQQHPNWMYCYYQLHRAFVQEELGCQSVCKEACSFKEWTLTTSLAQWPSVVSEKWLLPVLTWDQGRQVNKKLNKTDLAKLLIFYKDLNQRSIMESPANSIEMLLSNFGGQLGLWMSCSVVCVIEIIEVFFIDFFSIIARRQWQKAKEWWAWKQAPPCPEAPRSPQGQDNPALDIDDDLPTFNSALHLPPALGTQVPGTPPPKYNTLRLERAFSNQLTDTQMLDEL

85 serine hydrolases = settings: 5 nM-33 μM

Compound	uPA potency relative to amiloride (in words) (uPA [1])	fold increase in uPA activity relative to amiloride (uPA [1]; from Ki values) [fold]	other results
COc1ncc(-c2nc(C(=O)NC(=N)N)c(N)nc2N)c(OC)n1 [Compound 8]	only a modest increase in activity	–	–
COc1ccc(-c2nc(C(=O)NC(=N)N)c(N)nc2N)c(OC)n1 [Compound 9]	–	2	–
CSc1ccc(-c2nc(C(=O)NC(=N)N)c(N)nc2N)cc1 [Compound 4]	did not improve potency	–	–
N=C(N)NC(=O)c1nc(-c2cc3ccccc3s2)c(N)nc1N [Compound 14]	–	1.7	–
N=C(N)NC(=O)c1nc(-c2cc3cc(Br)ccc3o2)c(N)nc1N [Compound 19]	–	–	fold decrease in uPA activity relative to amiloride (uPA [1]; from Ki values): 1.5 fold; fold loss of uPA activity relative to 15 (uPA [1]; from Ki values): ~ 12 fold
COc1ncc(-c2nc(C(=O)NC(=N)N)c(N)nc2N2CCCCCC2)c(OC)n1 [6-(2,4-dimethoxypyrimidin-5-yl)-5-(N,N-hexamethylene) amiloride]	–	–	Ki (uPA [2]): 0.042 µM
N=C(N)NC(=O)c1nc(-c2ccc3c(c2)CCO3)c(N)nc1N [Compound 24]	slight increase	–	–
N=C(N)NC(=O)c1nc(-c2ccc(C(F)(F)F)cc2)c(N)nc1N [Compound 5]	did not improve potency	–	–
N=C(N)NC(=O)c1nc(-c2ccccc2)c(N)nc1N [Compound 3]	did not improve potency	–	–
N=C(N)NC(=O)c1nc(-c2cccs2)c(N)nc1N [Compound 10]	–	2	–
N=C(N)NC(=O)c1nc(-c2ccco2)c(N)nc1N [Compound 11]	–	3.3	–
COc1ncc(-c2nc(C(=O)NC(=N)N)c(N)nc2N)cn1 [Compound 7]	–	–	cytotoxicity across the cell line panel (in words) [3]: much less toxic; effect on Na+/K+ excretion / solute concentrations (in words) (Sprague Dawley rats): no significant effect; effect on diuresis (in words) (Sprague Dawley rats): no significant effect; ENaC activity (in words) [4]: Complete loss of ENaC activity; inhibition of serine hydrolases in EnPlex assay (in words) (85 serine hydrolases): High uPA selectivity
N=C(N)NC(=O)c1nc(-c2ccc3occc3c2)c(N)nc1N [Compound 23]	–	–	uPA potency relative to 15 (in words) (uPA [1]): only a small decrease in potency

Source: paper PMC7362394 (Bioorganic & medicinal chemistry letters, 2019)
